For one assay, the target named is T1, Interstitial collagenase (Homo sapiens, UniProt P03956).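 Note: MMP-1 enzyme inhibition assay using a peptide substrate; in other assays of this panel Not Active means under 50% inhibition at 10 µM.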
T1 sequence (P03956 whole entry): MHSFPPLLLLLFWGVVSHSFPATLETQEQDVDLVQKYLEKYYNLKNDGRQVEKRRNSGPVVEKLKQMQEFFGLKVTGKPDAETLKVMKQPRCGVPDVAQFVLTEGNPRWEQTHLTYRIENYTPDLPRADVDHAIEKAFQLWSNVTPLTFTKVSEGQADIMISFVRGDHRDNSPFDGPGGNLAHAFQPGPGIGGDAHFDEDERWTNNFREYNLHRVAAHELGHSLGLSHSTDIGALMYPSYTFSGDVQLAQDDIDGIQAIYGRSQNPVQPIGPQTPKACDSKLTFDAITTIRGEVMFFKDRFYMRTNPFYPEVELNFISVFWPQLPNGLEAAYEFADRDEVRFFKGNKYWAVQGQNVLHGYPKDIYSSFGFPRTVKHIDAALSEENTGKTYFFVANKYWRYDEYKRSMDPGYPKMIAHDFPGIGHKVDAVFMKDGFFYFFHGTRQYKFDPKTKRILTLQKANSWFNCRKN
The class given is tissue-based, Rheumatoid synovial fibroblasts.

Assay [1] addresses 5-hydroxytryptamine receptor 2B (Homo sapiens, UniProt P41595). The class given is cell membranes, CHO-K1, Membrane. The following applies: cho-k1.
Assay [2] in a line: DRUGMATRIX: Interleukin IL-1 radioligand binding (ligand: [125I] interleukin 1beta). The format is cell membranes, Membrane. Conditions: nih3t3; Not Active = under 50% inhibition at 10 µM.
Assay [3] has as its target T2, Alpha-1A adrenergic receptor (Rattus norvegicus, UniProt P43140).
T2 sequence (P43140 whole entry): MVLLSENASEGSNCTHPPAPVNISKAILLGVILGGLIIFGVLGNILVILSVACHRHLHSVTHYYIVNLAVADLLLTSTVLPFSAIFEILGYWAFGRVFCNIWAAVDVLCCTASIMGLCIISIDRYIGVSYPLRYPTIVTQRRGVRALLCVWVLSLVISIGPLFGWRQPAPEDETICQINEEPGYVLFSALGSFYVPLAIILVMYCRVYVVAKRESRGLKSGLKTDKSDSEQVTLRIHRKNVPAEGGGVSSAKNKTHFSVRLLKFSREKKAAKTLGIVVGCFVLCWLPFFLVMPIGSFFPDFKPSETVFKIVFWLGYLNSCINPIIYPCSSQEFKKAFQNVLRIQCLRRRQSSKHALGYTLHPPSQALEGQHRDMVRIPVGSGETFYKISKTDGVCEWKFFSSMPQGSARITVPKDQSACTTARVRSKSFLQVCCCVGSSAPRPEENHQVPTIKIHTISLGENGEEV
The experiment in a line: DRUGMATRIX: Alpha-1A adrenergic receptor radioligand binding (ligand: prazosin). The class given is cell membranes, Wistar, Submaxillary gland, Membrane. Conditions: Not Active = under 50% inhibition at 10 µM.

In assay [4] the target is T3, Nitric oxide synthase, inducible (Mus musculus, UniProt P29477).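 Note: inhibition of iNOS enzyme activity measured with L-arginine as substrate; in other assays of this panel Not Active means under 50% inhibition at 10 µM.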
T3 sequence (P29477 whole entry): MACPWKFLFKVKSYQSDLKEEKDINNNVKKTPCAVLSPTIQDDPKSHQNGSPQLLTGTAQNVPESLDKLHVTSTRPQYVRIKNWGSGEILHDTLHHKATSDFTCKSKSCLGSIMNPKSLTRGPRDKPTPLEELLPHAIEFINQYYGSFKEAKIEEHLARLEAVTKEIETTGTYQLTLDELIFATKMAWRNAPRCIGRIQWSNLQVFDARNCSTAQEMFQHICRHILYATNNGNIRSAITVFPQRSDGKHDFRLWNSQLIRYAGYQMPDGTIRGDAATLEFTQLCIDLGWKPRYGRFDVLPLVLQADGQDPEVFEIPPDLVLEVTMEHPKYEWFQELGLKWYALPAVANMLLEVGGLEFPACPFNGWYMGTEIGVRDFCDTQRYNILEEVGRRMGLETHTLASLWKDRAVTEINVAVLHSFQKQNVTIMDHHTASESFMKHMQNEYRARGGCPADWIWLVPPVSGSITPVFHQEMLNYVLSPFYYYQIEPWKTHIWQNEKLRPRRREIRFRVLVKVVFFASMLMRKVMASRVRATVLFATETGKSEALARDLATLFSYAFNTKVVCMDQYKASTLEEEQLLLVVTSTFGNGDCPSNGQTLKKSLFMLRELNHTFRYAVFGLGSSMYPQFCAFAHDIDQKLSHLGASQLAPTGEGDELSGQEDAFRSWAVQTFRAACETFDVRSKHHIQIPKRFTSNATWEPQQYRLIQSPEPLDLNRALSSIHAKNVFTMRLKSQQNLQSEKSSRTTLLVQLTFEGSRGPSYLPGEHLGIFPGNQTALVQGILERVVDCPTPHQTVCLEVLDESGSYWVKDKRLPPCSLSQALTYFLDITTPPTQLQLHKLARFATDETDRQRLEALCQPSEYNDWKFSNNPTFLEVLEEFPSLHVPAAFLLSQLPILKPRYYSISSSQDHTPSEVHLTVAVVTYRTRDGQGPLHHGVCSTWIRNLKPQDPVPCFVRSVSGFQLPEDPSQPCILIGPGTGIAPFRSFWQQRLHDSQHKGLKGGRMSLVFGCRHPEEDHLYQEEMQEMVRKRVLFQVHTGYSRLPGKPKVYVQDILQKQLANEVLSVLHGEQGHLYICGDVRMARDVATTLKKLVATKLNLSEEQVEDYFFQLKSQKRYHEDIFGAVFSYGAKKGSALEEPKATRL
Further details: species or system Escherichia coli.

Another assay addresses Glycine receptor (Rattus norvegicus, UniProt P22771+P24524+P07727+P20781). The class given is cell membranes, Wistar, Spinal cord, Membrane.
The target of assay [5] is Receptor tyrosine-protein kinase erbB-2 (Homo sapiens, UniProt P04626). Briefly: biochemical. The format is cell-based, Insect cells. The following applies: insect cells.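 Note: inhibition of HER2 kinase enzyme activity, measured with Poly(Glu:Tyr) as the phosphorylation substrate; in other assays of this panel Not Active means under 50% inhibition at 10 µM.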
Assay [6] has as its target Delta-type opioid receptor (Homo sapiens, UniProt P41143). The format is cell membranes, HEK293, Membrane. The following applies: hek293. Note: in other assays of this panel Not Active means under 50% inhibition at 10 µM.
In assay [7] the target is Prostaglandin G/H synthase 1 (Homo sapiens, UniProt P23219). Briefly: biochemical. The class given is tissue-based, Platelet. The following applies: platelet.
Prostaglandin G/H synthase 1, sequence (P23219 whole entry): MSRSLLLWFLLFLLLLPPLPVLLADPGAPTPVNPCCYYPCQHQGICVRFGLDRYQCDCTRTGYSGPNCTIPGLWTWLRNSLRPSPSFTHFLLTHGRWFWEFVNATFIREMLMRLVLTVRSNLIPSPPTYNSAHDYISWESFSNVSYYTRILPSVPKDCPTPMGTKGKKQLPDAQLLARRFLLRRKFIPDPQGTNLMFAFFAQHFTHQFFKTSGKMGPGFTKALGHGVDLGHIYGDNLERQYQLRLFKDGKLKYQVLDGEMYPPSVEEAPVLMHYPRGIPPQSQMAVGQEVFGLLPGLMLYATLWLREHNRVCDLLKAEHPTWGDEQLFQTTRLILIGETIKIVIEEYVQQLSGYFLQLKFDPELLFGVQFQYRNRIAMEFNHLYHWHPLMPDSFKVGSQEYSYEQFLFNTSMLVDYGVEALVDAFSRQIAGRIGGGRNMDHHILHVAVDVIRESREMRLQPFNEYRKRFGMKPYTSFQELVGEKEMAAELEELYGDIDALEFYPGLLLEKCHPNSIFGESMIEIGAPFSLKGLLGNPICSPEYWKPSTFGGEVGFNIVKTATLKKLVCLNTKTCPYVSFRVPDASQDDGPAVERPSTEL
The target in assay [8] is Epidermal growth factor receptor (Homo sapiens, UniProt P00533). The experiment in a line: DRUGMATRIX: Protein Tyrosine Kinase, EGF Receptor enzyme inhibition (substrate: Poly(Glu:Tyr)). Conditions: insect cells, Not Active = under 50% inhibition at 10 µM. The class given is cell-based, Insect cells.
The target in assay [9] is Beta-1 adrenergic receptor (Homo sapiens, UniProt P08588). The experiment in a line: DRUGMATRIX: Adrenergic beta1 radioligand binding (ligand: [125I] Cyanopindolol). The class given is cell membranes, CHO-K1, Membrane. Conditions: cho-k1; Not Active = under 50% inhibition at 10 µM.
Beta-1 adrenergic receptor, sequence (P08588 whole entry): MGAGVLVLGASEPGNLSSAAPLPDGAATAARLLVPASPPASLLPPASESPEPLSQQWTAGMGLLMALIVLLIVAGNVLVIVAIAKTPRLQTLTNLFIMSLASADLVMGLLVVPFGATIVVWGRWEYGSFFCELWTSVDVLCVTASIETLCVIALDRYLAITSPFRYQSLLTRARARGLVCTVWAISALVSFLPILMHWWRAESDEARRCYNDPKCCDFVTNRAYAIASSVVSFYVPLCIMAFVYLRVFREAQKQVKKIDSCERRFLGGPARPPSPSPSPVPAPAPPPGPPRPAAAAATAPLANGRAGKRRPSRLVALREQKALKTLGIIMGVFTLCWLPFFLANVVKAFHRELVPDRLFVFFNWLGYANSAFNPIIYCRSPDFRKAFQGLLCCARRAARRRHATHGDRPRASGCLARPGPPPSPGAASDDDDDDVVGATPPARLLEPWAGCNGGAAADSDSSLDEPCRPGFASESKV

pIC50: −log10 of the molar value.

5-hydroxytryptamine receptor 2B, sequence (P41595 whole entry): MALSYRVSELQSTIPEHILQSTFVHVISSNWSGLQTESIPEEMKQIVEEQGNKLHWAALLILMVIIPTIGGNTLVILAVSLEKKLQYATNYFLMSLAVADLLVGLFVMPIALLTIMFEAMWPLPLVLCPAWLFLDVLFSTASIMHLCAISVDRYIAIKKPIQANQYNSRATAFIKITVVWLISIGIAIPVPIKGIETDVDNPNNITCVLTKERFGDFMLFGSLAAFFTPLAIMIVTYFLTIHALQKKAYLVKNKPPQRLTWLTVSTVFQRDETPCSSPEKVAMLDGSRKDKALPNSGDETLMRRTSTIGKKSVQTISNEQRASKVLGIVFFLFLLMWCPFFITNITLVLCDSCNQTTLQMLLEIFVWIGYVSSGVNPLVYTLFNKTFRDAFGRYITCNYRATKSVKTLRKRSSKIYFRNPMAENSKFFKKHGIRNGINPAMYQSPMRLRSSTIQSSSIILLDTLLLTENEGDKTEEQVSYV
Delta-type opioid receptor, sequence (P41143 whole entry): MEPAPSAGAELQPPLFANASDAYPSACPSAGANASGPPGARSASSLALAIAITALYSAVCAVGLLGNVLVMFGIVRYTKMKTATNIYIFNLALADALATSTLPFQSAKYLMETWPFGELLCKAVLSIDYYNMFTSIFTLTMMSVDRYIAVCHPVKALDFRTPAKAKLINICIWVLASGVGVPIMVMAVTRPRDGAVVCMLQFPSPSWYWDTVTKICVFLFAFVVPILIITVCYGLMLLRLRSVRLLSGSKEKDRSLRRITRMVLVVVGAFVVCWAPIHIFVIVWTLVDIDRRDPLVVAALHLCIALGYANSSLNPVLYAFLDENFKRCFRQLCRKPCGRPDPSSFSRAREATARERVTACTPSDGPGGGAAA

For CARBOPLATIN, the IC50 entry (against Interstitial collagenase; in assay [1]; in [2]; in assay [3]; in assay [4]; against Glycine receptor) was “Not Active” each time. The IC50 result in assay [5], in assay [6], in [7], in assay [8] and in [9] was “Not Active” in each case. Also, the Ki result (at Interstitial collagenase; in assay [1]; in assay [2]; in assay [3]; in assay [4]; on Glycine receptor) was “Not Active” in each case. The Ki result in assay [5], in assay [6], in assay [7], in [8] and in assay [9] was “Not Active” throughout.

The term pIC50 denotes −log10 of the IC50, conventionally taken in molar units. On to CISPLATIN, for which the IC50 result (at Interstitial collagenase; in assay [1]; in assay [2]; in [3]; in assay [4]; against Glycine receptor) was “Not Active” throughout. Besides, the IC50 result in assay [5], in assay [6], in assay [7] and in assay [9] was “Not Active” each time. In addition, the Ki entry (on Interstitial collagenase; in [1]; in assay [2]; in assay [3]; in [4]; on Glycine receptor) was “Not Active” throughout. For the same sequence, the Ki entry in assay [5], in [6], in [7] and in assay [9] was “Not Active” throughout. Besides, the pIC50 in assay [8] (read-out: IC50) is 5.58.

For the sequence OXALIPLATIN, the IC50 entry (at Interstitial collagenase; in assay [1]; in assay [2]; in assay [3]; in assay [4]; at Glycine receptor) was “Not Active” each time. The IC50 result in assay [5], in assay [6], in assay [7], in assay [8] and in assay [9] was “Not Active” throughout. The Ki result (on Interstitial collagenase; in assay [1]; in assay [2]; in [3]; in [4]; at Glycine receptor) was “Not Active” each time. The Ki result in [5], in [6], in assay [7], in [8] and in assay [9] was “Not Active” each time.
